The record followed here is patent US6747050B1, “Isoxazoline derivative and a process for the preparation thereof” (LG Chem Investment Ltd., priority 1999, dated 2004).

Experiment [1] deals with C57BL/6 female mice. Nature of the experiment: anti-Fas antibody (Jo2)-induced liver apoptosis and lethality in mice. Format: in vivo. The procedure:
(§1) […] C57BL/6 female mice (18-20 g) were injected i.p. with compound 33MP dissolved in vehicle which consists of olive oil and 10% DMSO, or vehicle alone, at 1 hr before i.v. injection with 10 μg of Anti-Fas antibody (Jo2). Following 4 hrs of i.v. injection with Jo2 antibody, animals were placed under inhaled isoflurane anesthesia for blood collection and liver isolation. Mice were also i.p. injected with 0.2 μg/20 g of TNFα and 12 mg/20 g of D-galactosamine (TNFα/GalN) and compound 33MP or its salt form (Compound 33MP-Na). 8 hrs later, blood and liver tissues were isolated from anesthetized animals. The liver tissues were snap-frozen and stored at −80° C. until use. Plasma was isolated from blood by centrifugation at 12,000×g for 10 min at 4° C. and stored at −80° C. In some experiments for animal mortality, mice were i.p. injected with TNFα/GalN and caspase inhibitor was injected 1 hr before, simultaneously, 2 hrs, or 4 hrs after TNFα/GalN injection
(§2) Whole tissues (0.5 g) were homogenated in ice-cold lysis buffer (5 mM Tris, 20 mM EDTA, 0.5% Triton-X 100, pH8.0). […] The supernatant was obtained and extracted twice with a mixture of phenol and chloroform. One-tenth volume of 3 M sodium acetate was added to the solution, and DNA was precipitated by adding an equal volume of isopropanol. After storing at −20° C. overnight, a DNA pellet was obtained by centrifugation at 12,000×g for 15 min. at 4° C. and washed twice with 75% ethanol. The pellet was dried and resuspended in 100 μl of 20 mM Tris-HCl, pH 8.0. After digesting RNA with DNase-free RNase (0.1 mg/ml, at 37° C. for 1 hr, samples […] were electrophoresed through a 1.2% agarose gel in 450 mM Tris borate+EDTA (TBE), pH 8.0 buffer. DNA was photographed under visualized with UV light.
(§3) Liver tissues were homogenated in 10 mM HEPES buffer containing protease inhibitors (5 μg/ml aprotinin, 5 μg/ml pepstatin A, 10 μg/ml leupeptin, and 0.5 mM PMSF) and lysed by three feeze/thaw cycles. […] Protein concentration was determined with BCA protein assay reagent (pierce, Rockford, Ill.). Cytosol containing 200 μg protein was combined in 96-well plate with […] of synthetic substrate Ac-DEVD-pNA in 150 μl of 100 mM HEPES, pH 7.4, containing the protease inhibitors, and the reaction was conducted for 1 hr at 37° C. […] Plasma level of aspartate aminotransferase (AST) was analyzed by spectrophotometry using each enzyme assay kit (Sigma).

Experiment [2] relates to C57BL/6 female mice. The experiment can be described thus: TNFα-induced liver toxicity and lethality in mice. Format: in vivo. As to conditions: TNFα/ActD. The procedure: as §1, with “Mice were also i.p. injected with 0.2 μg/20 g of TNFα and 12 mg/20 g of D-galactosamine (TNFα/GalN) and compound 33MP or its salt form (Compound 33MP-Na).” left out
as §2, §3

Experiment [3] has as its system caspase-3-like activity (Ac-DEVD-pNA). The experiment can be described thus: Caspase-3-like activity in TNFα/ActD-treated primary rat hepatocytes. Format: cell-based. The following applies: 100 μM, 8 hrs. As for the experimental part: Primary rat hepatocytes were isolated and purified from male Sprague-Dawley rats using a collagenase digestion method. The hepatocytes were purified over 30% Percoll gradient by centrifugation at 1,000×g for 10 min. at 4° C. […] The cells were plated on collagen-coated tissue culture plates at a density of 2×10^5 cells/well in 12-well plates for cell viability analysis or 5×10^6 cells/100 mm dish for enzyme assays. After 18 hrs preculture, the cells were treated with 2,000 units/ml TNFα and 0.2 μg/ml Actinomycin (ActD). Caspase activity and cell viability was determined by colorimetry using a caspase substrate Ac-DEVD-pNA and crystal violet staining method at 8 hrs and 12 hrs, respectively.

For another experiment, the target named is T1, caspase-3 (Homo sapiens, UniProt P42574).
T1 construct: made in house; host or cells: transformed bacterium (pET vector)
T1 sequence (P42574 29-175 limits assumed): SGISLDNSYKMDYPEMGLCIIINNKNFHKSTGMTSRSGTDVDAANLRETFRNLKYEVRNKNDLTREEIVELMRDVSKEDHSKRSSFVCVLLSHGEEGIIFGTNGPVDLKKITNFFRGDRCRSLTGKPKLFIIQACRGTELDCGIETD
T1 sequence (P42574 176-277 limits assumed): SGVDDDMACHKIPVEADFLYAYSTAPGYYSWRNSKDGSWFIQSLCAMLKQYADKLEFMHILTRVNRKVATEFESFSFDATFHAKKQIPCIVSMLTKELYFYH
Nature of the experiment: Recombinant caspase enzyme inhibition, fluorogenic substrate Ac-DEVD-AMC. The following applies: Irreversible Inhibitors; read-out: Kobs/[I] for caspase-3. Format: biochemical. As for the experimental part:
(§4) In the present experiment recombinant caspases were purified from a transformed bacterium after human caspase genes were cloned into the expression vector pET, and then used in the experiment (Thornberry, N. A. et al. Nature, 1992, 356, 768. Thornberry, N. A. Methods in Enzymology, 1994, 615.).
(§5) Enzymatic activity was measured by a known procedure (Walker N. P. C. et al., Cell 1994, 78, 343). Briefly, 10 ng of recombinant protein was mixed with 50 mM Tris(pH 7.0), 1 mM DTT, 0.5 mM EDTA, 10% Glycerol buffer containing 1˜100 μM of enzyme substrate, Ac-YVAD-AMC or Ac-DEVD-AMC and then the changes by isolated AMC at 37° C. were recorded. The inhibitory activity for caspases was calculated from the early enzyme reaction rate by measuring the changes with fluorescence excited at […] and emitted at 460 nm (Range; Ki<100 nM).

The next experiment addresses T2, caspase-1 (Homo sapiens, UniProt P29466).
T2 construct: made in house; host or cells: transformed bacterium (pET vector)
T2 sequence (P29466 120-297 limits assumed): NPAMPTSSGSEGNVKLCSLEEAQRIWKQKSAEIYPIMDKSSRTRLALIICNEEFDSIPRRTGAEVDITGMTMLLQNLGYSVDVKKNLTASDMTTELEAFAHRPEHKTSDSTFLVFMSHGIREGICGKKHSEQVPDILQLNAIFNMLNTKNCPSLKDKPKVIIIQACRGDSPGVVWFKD
T2 sequence (P29466 317-404 limits assumed): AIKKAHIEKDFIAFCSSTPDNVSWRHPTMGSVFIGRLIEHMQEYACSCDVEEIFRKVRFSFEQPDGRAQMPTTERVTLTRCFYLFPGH
The experiment can be described thus: Recombinant caspase enzyme inhibition, fluorogenic substrate Ac-YVAD-AMC. Format: biochemical. The following applies: Irreversible Inhibitors; read-out: Kobs/[I] for caspase-1. As for the experimental part: as §4, §5

`CC(C)[C@H](NC(=O)c1cccc2ccccc12)C1=NOC(Cc2ccccc2)(C(=O)N[C@@H](CC(=O)O)C(=O)COC(=O)c2c(Cl)cccc2Cl)C1` (stereo partly drawn) [Compound 33MP, (3S)-3-{3-[2-Methyl-(1S)-1-(1-naphthalenecarbonylamino)-propyl]-5-phenylmethyl-4,5-dihydro-isoxazole-5-carbonylamino}-4-keto-5-(2,6-dichlorobenzoyloxy)-pentanoic Acid]: in the experiment with C57BL/6 female mice [1] (0.4 mg/20 g, 1 mg/20 g i.p. 1 hr before antibody, 4 hrs), the “liver apoptosis determined by DNA fragmentation (FIG. 9A)” value is “suppressed the liver apoptosis in a dose-dependent manner”. Also, in the experiment with C57BL/6 female mice [1] (4 hrs after anti-Fas antibody), the “release of liver enzyme AST (FIG. 9B)” value is given as “significantly suppressed”. Further, the “caspase-3-like activity in liver tissues (FIG. 10)” value in the experiment with C57BL/6 female mice [1] (anti-Fas antibody increased activity about 25-folds) is “abrogated”. Besides, in the experiment on C57BL/6 female mice [1] (mouse, in vivo), the “inhibition of mortality compared with Z-VAD-fmk” value is reported as “more effective”, the “suppression of AST release compared with Z-VAD-fmk” value was “higher” and the “suppression of liver apoptosis compared with Z-VAD-fmk” value was “higher”. In addition, the “reduction of mortality (FIG. 11)” value in the experiment on C57BL/6 female mice [1] (within 24 hrs, antibody alone 85% died) was “about 30%”. In addition, in the experiment with C57BL/6 female mice [2], the “DNA fragmentation in liver tissues (FIG. 12A)” value is listed as “significantly reduced”, the “caspase-3-like activity in liver (FIG. 13)” value is on record as “suppressed”, the “inhibitory effect on caspase activity compared with Z-VAD-fmk” value is listed as “higher” and the “protective effect compared with Z-VAD-fmk” value is reported as “higher”. For the same compound, the “release of AST (FIG. 12B)” value in the experiment on C57BL/6 female mice [2] is on record as “suppressed”. In experiment [3], the “caspase-3-like activity increased by TNFα/ActD (FIG. 15A)” value was “not different”.
As for `CC(C)[C@H](NC(=O)c1cc2ccccc2[nH]1)C1=NOC(Cc2ccccc2)(C(=O)N[C@@H](CC(=O)O)C(=O)COC(=O)c2c(Cl)cccc2Cl)C1` (stereo partly drawn) [Compound 64, (3S)-3-{3-[2-Methyl-(1S)-1-(indole-2-carbonylamino)-propyl]-5-phenylmethyl-4,5-dihydro-isoxazole-5-carbonylamino}-4-keto-5-(2,6-dichlorobenzoyloxy)-pentanoic Acid], the kinact/KI came to 1230 M⁻¹ s⁻¹ on caspase-3 and 707000 M⁻¹ s⁻¹ at caspase-1.
Consider `CC(C)[C@H](NC(=O)c1c[nH]c2ccccc12)C1=NOC(Cc2ccccc2)(C(=O)N[C@@H](CC(=O)O)C(=O)COC(=O)c2c(Cl)cccc2Cl)C1` (stereo partly drawn) [Compound 66, (3S)-3-{3-[2-Methyl-(1S)-1-(indole-3-carbonylamino)-propyl]-5-phenylmethyl-4,5-dihydro-isoxazole-5-carbonylamino}-4-keto-5-(2,6-dichlorobenzoyloxy)-pentanoic Acid], for which the kinact/KI at caspase-3 was 1560 M⁻¹ s⁻¹; at caspase-1 it was 357000 M⁻¹ s⁻¹.
`CC(C)[C@H](NC(=O)c1cccc2ccccc12)C1=NOC(C)(C(=O)N[C@@H](CC(=O)O)C(=O)COC(=O)c2c(Cl)cccc2Cl)C1` (stereo partly drawn) [Compound 68, (3S)-3-{3-[2-Methyl-(1S)-1-(naphthalene-1-carbonylamino)-propyl]-5-methyl-4,5-dihydro-isoxazole-5-carbonylamino}-4-keto-5-(2,6-dichlorobenzoyloxy)-pentanoic Acid]: the kinact/KI on caspase-3 amounted to 2390 M⁻¹ s⁻¹; at caspase-1, 616000 M⁻¹ s⁻¹.
